According to PubChem BioAssay AID248 (DTP/NCI, 2004):
Several values for one entry are separate records, joined by “and”; a condition that tells them apart may be missing. Identical values can stand only once. Toxic doses and inconclusive results are not listed. No stated cut-off is given here; in the data, active means T/C of 150% or more; inactive means T/C below 125%.

Tested on: L1210 leukemia ip in BDF1 mice, survival T/C
Experiment: NCI In Vivo Anticancer Drug Screen. Data for tumor model L1210 Leukemia (intraperitoneal) in B6D2F1 (BDF1) mice
Conditions: endpoint: mean survival time, higher = longer survival
Method in brief: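 In this screen, tumor-bearing mice given compound are compared to those given vehicle, and their survival values are reported as a treated-to-control quotient.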

[1] = dose: 75.0 mg/kg/injection, schedule: Q01DX001 (ip), vehicle: saline
[2] = dose: 150.0 mg/kg/injection, schedule: Q01DX001 (ip), vehicle: saline
[3] = dose: 100.0 mg/kg/injection, schedule: Q04DX003 (ip), vehicle: saline with Tween-80
[4] = dose: 100.0 mg/kg/injection, schedule: Q01DX001 (ip), vehicle: saline
[5] = dose: 200.0 mg/kg/injection, schedule: Q01DX001 (ip), vehicle: saline
[6] = dose: 400.0 mg/kg/injection, schedule: Q01DX001 (ip), vehicle: saline
[7] = dose: 200.0 mg/kg/injection, schedule: Q04DX003 (ip), vehicle: saline with Tween-80
[8] = dose: 400.0 mg/kg/injection, schedule: Q04DX003 (ip), vehicle: saline with Tween-80
[9] = dose: 100.0 mg/kg/injection, schedule: Q01DX009 (ip), vehicle: saline
[10] = dose: 100.0 mg/kg/injection, schedule: Q04DX003 (ip), vehicle: saline
[11] = dose: 200.0 mg/kg/injection, schedule: Q01DX009 (ip), vehicle: saline
[12] = dose: 200.0 mg/kg/injection, schedule: Q04DX003 (ip), vehicle: saline

Measured: T/C

OC(c1ccc(Cl)cc1)(c1ccc(Cl)cc1)C(F)(F)F
inactive: dose: 100.0 mg/kg/injection, schedule: Q01DX009 (sc), vehicle: olive oil, sesame oil, peanut oil 113 % of control | dose: 100.0 mg/kg/injection, schedule: Q04DX003 (sc), vehicle: olive oil, sesame oil, peanut oil 100 % of control | dose: 200.0 mg/kg/injection, schedule: Q01DX009 (sc), vehicle: olive oil, sesame oil, peanut oil 101 % of control | dose: 200.0 mg/kg/injection, schedule: Q04DX003 (sc), vehicle: olive oil, sesame oil, peanut oil 97 % of control | dose: 400.0 mg/kg/injection, schedule: Q04DX003 (sc), vehicle: olive oil, sesame oil, peanut oil 113 % of control

CCCCCCCCCCCCOCCC(=O)O
inactive: [1] 100 % of control | [2] 94 % of control | dose: 300.0 mg/kg/injection, schedule: Q01DX001 (ip), vehicle: saline 94 % of control

NNC(=O)CCc1ccccc1[N+](=O)[O-]
inactive: dose: 40.0 mg/kg/injection, schedule: Q04DX003 (ip), vehicle: saline 108 % of control | [1] 93 % of control | dose: 75.0 mg/kg/injection, schedule: Q04DX003 (ip), vehicle: saline 98 % of control | [2] 96 % of control | dose: 150.0 mg/kg/injection, schedule: Q04DX003 (ip), vehicle: saline 101 % of control

CCN(CC)CCCC(C)NC(=O)c1cccc2c(N)cccc12 (stereo not drawn)
inactive: dose: 25.0 mg/kg/injection, schedule: Q01DX009 (ip), vehicle: water 110 % of control | dose: 50.0 mg/kg/injection, schedule: Q01DX009 (ip), vehicle: water 103 % of control | dose: 100.0 mg/kg/injection, schedule: Q01DX009 (ip), vehicle: water 101 % of control | dose: 200.0 mg/kg/injection, schedule: Q01DX009 (ip), vehicle: water 95 % of control | dose: 400.0 mg/kg/injection, schedule: Q01DX009 (ip), vehicle: water 103 % of control

CC1=NC2(CCCCC2)C[N+]1(Cc1ccccc1)Cc1ccccc1
inactive: [3] 94 % of control

CCCOC(=O)C(CC(C)(C)C)CC(C)(C)C
inactive: [4] 104 % of control | [5] 104 % of control | [6] 101 % of control

CSc1cccc(NC(=O)Nc2ccc(Cl)cc2)c1
inactive: dose: 100.0 mg/kg/injection, schedule: Q04DX002 (ip), vehicle: saline with Tween-80 104 % of control | dose: 200.0 mg/kg/injection, schedule: Q04DX002 (ip), vehicle: saline with Tween-80 93 % of control | dose: 400.0 mg/kg/injection, schedule: Q04DX002 (ip), vehicle: saline with Tween-80 89 % of control

CCCCCCCCCCCCCC[n+]1ccc(C#N)cc1
inactive: dose: 7.5 mg/kg/injection, schedule: Q04DX003 (ip), vehicle: saline 101 % of control | dose: 15.0 mg/kg/injection, schedule: Q04DX003 (ip), vehicle: saline 95 % of control | dose: 30.0 mg/kg/injection, schedule: Q04DX003 (ip), vehicle: saline 96 % of control

OC(C[n+]1ccsc1)c1ccccc1 (stereo not drawn)
inactive: [1] 96 % of control | [2] 100 % of control

O=C1N/C(=N\OCCc2ccccc2)CC(NOCCc2ccccc2)N1 (stereo not drawn)
inactive: [3] 94 % of control | [7] 94 % of control | [8] 97 % of control

CC(=O)OCC(=O)[C@@]1(O)CC[C@H]2[C@@H]3CCC4=CC(=O)[C@H](C)C[C@]4(C)[C@@]3(F)[C@@H](O)C[C@@]21C
inactive: dose: 50.0 mg/kg/injection, schedule: Q01DX Z (sc), vehicle: steriod suspending solution 114 % of control | dose: 100.0 mg/kg/injection, schedule: Q01DX Z (sc), vehicle: steriod suspending solution 114 % of control

Cc1ccc(NC(=O)Nc2ccc(C)cc2C)cc1
inactive: dose: 100.0 mg/kg/injection, schedule: Q01DX001 (ip), vehicle: carboxymethylcellulose (CMC) 90 % of control | dose: 200.0 mg/kg/injection, schedule: Q01DX001 (ip), vehicle: carboxymethylcellulose (CMC) 98 % of control | dose: 400.0 mg/kg/injection, schedule: Q01DX001 (ip), vehicle: carboxymethylcellulose (CMC) 92 % of control

O=C(/N=N/C(=O)Oc1ccccc1)Oc1ccccc1
inactive: [4] 98 % of control | [5] 101 % of control | [6] 98 % of control

CCCCCCCCCCCCOc1ccccc1
inactive: dose: 50.0 mg/kg/injection, schedule: Q01DX009 (ip), vehicle: saline with Tween-80 97 % of control | dose: 100.0 mg/kg/injection, schedule: Q01DX009 (ip), vehicle: saline with Tween-80 92 % of control | [3] 88 % of control | dose: 200.0 mg/kg/injection, schedule: Q01DX009 (ip), vehicle: saline with Tween-80 109 % of control | [7] 92 % of control

CN1C2CCC1C(O)C(c1ccccc1)C2 (stereo not drawn)
inactive: dose: 10.0 mg/kg/injection, schedule: Q01DX001 (ip), vehicle: saline 106 % of control | dose: 20.0 mg/kg/injection, schedule: Q01DX001 (ip), vehicle: saline 101 % of control | dose: 40.0 mg/kg/injection, schedule: Q01DX001 (ip), vehicle: saline 106 % of control

Nc1nc2nc[nH]c2c(N)c1Br (tested in a mixture with another compound)
inactive: dose: 50.0 mg/kg/injection, schedule: Q01DX009 (ip), vehicle: saline 95 % of control | dose: 50.0 mg/kg/injection, schedule: Q04DX003 (ip), vehicle: saline 96 % of control | [4] 100 % of control | [9] 92 % of control | [10] 94 % of control | [5] 97 % of control | [11] 114 % of control | [12] 105 % of control

CCOC(c1ccccc1)(c1ccccc1)c1ccccc1
inactive: [3] 101 % of control | [7] 90 % of control | [8] 91 % of control

CCCCOC(=O)c1ccc(OC(=O)Nc2ccc(C)cc2[N+](=O)[O-])cc1
inactive: dose: 50.0 mg/kg/injection, schedule: Q01DX009 (ip), vehicle: saline + alcohol 97 % of control | dose: 100.0 mg/kg/injection, schedule: Q01DX009 (ip), vehicle: saline + alcohol 123 % of control | dose: 200.0 mg/kg/injection, schedule: Q01DX009 (ip), vehicle: saline + alcohol 103 % of control

COc1ccc(-c2cc3c(OC)ccc(OC)c3[nH]2)cc1OC
inactive: dose: 25.0 mg/kg/injection, schedule: Q04DX002 (ip), vehicle: Klucel (hydroxypropylcellulose) (HPC) 96 % of control | dose: 50.0 mg/kg/injection, schedule: Q04DX002 (ip), vehicle: Klucel (hydroxypropylcellulose) (HPC) 96 % of control and 99 % of control | dose: 100.0 mg/kg/injection, schedule: Q04DX002 (ip), vehicle: Klucel (hydroxypropylcellulose) (HPC) 91 % of control | dose: 200.0 mg/kg/injection, schedule: Q04DX002 (ip), vehicle: Klucel (hydroxypropylcellulose) (HPC) 93 % of control

O=[N+]([O-])c1cccc2cccc([N+](=O)[O-])c12
inactive: [9] 91 % of control | [10] 103 % of control | [11] 86 % of control | [12] 98 % of control | dose: 400.0 mg/kg/injection, schedule: Q04DX003 (ip), vehicle: saline 101 % of control

Cc1c(Cl)cc(Cl)c2ncccc12
inactive: dose: 12.5 mg/kg/injection, schedule: Q04DX003 (ip), vehicle: Klucel (hydroxypropylcellulose) (HPC) 95 % of control | dose: 25.0 mg/kg/injection, schedule: Q04DX003 (ip), vehicle: Klucel (hydroxypropylcellulose) (HPC) 86 % of control | dose: 50.0 mg/kg/injection, schedule: Q04DX003 (ip), vehicle: Klucel (hydroxypropylcellulose) (HPC) 96 % of control

CCOC(=O)COc1ccc(N2C(N)=NC(N)=NC2(C)C)cc1
inactive: [4] 107 % of control | [9] 117 % of control | [5] 102 % of control | [11] 98 % of control | [6] 97 % of control | dose: 400.0 mg/kg/injection, schedule: Q01DX009 (ip), vehicle: saline 104 % of control

O=C(Nc1ccccc1-c1ccc([N+](=O)[O-])cc1)c1cc(Cl)cc(Cl)c1
inactive: [3] 88 % of control | [7] 88 % of control
